What is called IC50 is the concentration that inhibits the measured activity by half.

Each structure is given as a SMILES string.

Sequence of DGKα (P23743 other isoform, or with tags, fused parts or gaps): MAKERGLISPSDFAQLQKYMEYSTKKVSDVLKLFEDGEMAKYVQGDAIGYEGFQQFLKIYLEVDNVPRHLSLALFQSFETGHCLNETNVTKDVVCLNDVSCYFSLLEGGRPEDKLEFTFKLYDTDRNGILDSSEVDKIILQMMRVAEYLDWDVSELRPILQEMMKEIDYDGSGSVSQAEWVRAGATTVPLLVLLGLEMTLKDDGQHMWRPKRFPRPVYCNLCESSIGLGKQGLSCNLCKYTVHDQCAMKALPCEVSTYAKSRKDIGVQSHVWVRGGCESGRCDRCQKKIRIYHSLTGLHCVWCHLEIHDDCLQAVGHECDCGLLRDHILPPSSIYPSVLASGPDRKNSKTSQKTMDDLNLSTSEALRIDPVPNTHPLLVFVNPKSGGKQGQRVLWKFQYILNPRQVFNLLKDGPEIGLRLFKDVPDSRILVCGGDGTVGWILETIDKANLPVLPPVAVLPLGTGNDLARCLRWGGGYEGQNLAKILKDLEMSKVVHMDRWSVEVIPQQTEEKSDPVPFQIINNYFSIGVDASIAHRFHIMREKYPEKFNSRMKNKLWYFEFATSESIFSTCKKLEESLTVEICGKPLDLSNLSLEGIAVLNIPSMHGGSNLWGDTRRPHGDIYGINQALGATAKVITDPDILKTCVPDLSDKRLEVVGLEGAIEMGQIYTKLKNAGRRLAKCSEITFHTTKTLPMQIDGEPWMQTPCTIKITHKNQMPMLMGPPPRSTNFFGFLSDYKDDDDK

This experiment has as its target DGKα (Homo sapiens (Human), UniProt P23743). Kind of experiment: Human DGKα kinase activity inhibition assay (ADP-Glo). The experiment is classed as biochemical. To be noted: recombinant full-length human DGKα, 55 μM ATP, 7 μM 1,2-dioleoyl-sn-glycerol, read-out: IC50 values of examples in in vitro human DGKa kinase activity inhibition assays. On the procedure:
Human DGKα Kinase Activity Inhibition Assay
Human DGKα inhibitory activity of compounds of the present invention was quantified employing the human DGKα kinase activity assay as described in the following paragraphs. In essence, the enzyme activity was measured by quantification of the adenosine-di-phosphate (ADP) generated as a co-product of the enzyme reaction via the “ADP-Glo™ Kinase Assay” kit from the company Promega. This detection system works as follows: In a first step the ATP not consumed in the kinase reaction is quantitatively converted to cAMP employing an adenylate cyclase (“ADP-Glo-reagent”), then the adenylate cyclase is stopped and the ADP generated in the kinase reaction converted to ATP, which subsequently generates in a luciferase-based reaction a glow-luminescence signal (“Kinase Detection Reagent”).
C-terminally FLAG-tagged, recombinant full-length human DGKα (expressed in baculovirus infected insect cells, purified using anti-Flag pulldown and size exclusion chromatography as described below, DGKa_hu_1) was used as enzyme. As substrate for the kinase 1,2-dioleoyl-sn-glycerol, reconstituted in octyl-β-D-glucopyranoside micelles, was used. […] Then 35 volumes of 50 mM MOPS buffer (pH 7.4) were added to yield a solution of 0.28 mM 1,2 dioleoyl-sn-glycerol and 200 mM […], which was aliquoted, flash-frozen in liquid nitrogen, and stored at −20° C. until use.
For the assay 50 nl of a 100-fold concentrated solution of the test compound in dimethyl sulfoxide (DMSO, Sigma) was pipetted into either a white 1536-well or a white low-volume 384-well microtiter plate (both Greiner Bio-One, Frickenhausen, Germany).
For orientation: In ADP-Glo the light output rises with the ADP produced.
`Cc1ccc2oc(C3CCN(c4c(C#N)c(=O)n(C)c5cc(OCC6CO6)ccc45)CC3)nc2c1` (centres unmarked) [Example 384, 1-methyl-4-[4-(5-methyl-1,3-benzoxazol-2-yl)piperidin-1-yl]-7-{[oxiran-2-yl]methoxy}-2-oxo-1,2-dihydroquinoline-3-carbonitrile]: the IC50 was 1.8 nM.

Turning to `Cn1c(=O)c(C#N)c(N2CCC(c3nc4ccccc4o3)CC2)c2ccc(Cl)cc21` [Example 227, 4-[4-(1,3-benzoxazol-2-yl)piperidin-1-yl]-7-chloro-1-methyl-2-oxo-1,2-dihydroquinoline-3-carbonitrile], the IC50 is 2 nM.

Turning to `Cn1c(=O)c(C#N)c(N2CCC(c3cccc(C#N)c3)CC2)c2ccccc21` [Example 327, 4-[4-(3-cyanophenyl)piperidin-1-yl]-1-methyl-2-oxo-1,2-dihydroquinoline-3-carbonitrile], the IC50 was 85 nM.

In the case of `Cc1cccc(-n2ccc(C3CCN(c4c(C#N)c(=O)n(C)c5ccccc45)CC3)n2)c1` [Example 366, 1-methyl-4-{4-[1-(3-methylphenyl)-1H-pyrazol-3-yl]piperidin-1-yl}-2-oxo-1,2-dihydroquinoline-3-carbonitrile], the IC50 came to 12 nM.

On to `Cc1ccc2oc(C3CCN(c4c(C#N)c(=O)n(C)c5ccc(C6(C(F)(F)F)CC6)cc45)CC3)nc2c1` [Example 412, 1-methyl-4-[4-(5-methyl-1,3-benzoxazol-2-yl)piperidin-1-yl]-2-oxo-6-[1-(trifluoromethyl)cyclopropyl]-1,2-dihydroquinoline-3-carbonitrile], for which the IC50 came out at 21 nM.

For `Cc1ccc(C2CCN(c3c(C#N)c(=O)n(C)c4ccccc34)CC2)cn1` [Example 143, 1-methyl-4-[4-(6-methylpyridin-3-yl)piperidin-1-yl]-2-oxo-1,2-dihydroquinoline-3-carbonitrile], the IC50 is 554 nM.

Take `Cc1ccc2oc(C3(C)CCN(c4c(C#N)c(=O)n(C)c5cc(C#N)ccc45)CC3)nc2c1` [Example 249, 1-methyl-4-[4-methyl-4-(5-methyl-1,3-benzoxazol-2-yl)piperidin-1-yl]-2-oxo-1,2-dihydroquinoline-3,7-dicarbonitrile]: the IC50 stood at 7.2 nM.

With `COc1ccc(C2CCN(c3c(C#N)c(=O)n(C)c4ccc(Br)cc34)CC2)cc1` [Example 167, 6-bromo-4-[4-(4-methoxyphenyl)piperidin-1-yl]-1-methyl-2-oxo-1,2-dihydroquinoline-3-carbonitrile], the IC50 stood at 3.2 nM.

Regarding `Cc1ccc2oc(C3(C)CCN(c4c(C#N)c(=O)n(C)c5ccc(OCC6(C#N)CC6)cc45)CC3)nc2c1` [Example 268, 6-[(1-cyanocyclopropyl)methoxy]-1-methyl-4-[4-methyl-4-(5-methyl-1,3-benzoxazol-2-yl)piperidin-1-yl]-2-oxo-1,2-dihydroquinoline-3-carbonitrile], the IC50 was determined as 65 nM.

As for `Cn1c(=O)c(C#N)c(N2CCC(c3ccc4c(c3)CC(O)C4)CC2)c2ccccc21` (centres unmarked) [Example 359, 4-[4-(2-hydroxy-2,3-dihydro-1H-inden-5-yl)piperidin-1-yl]-1-methyl-2-oxo-1,2-dihydroquinoline-3-carbonitrile], the IC50 amounted to 3.3 nM.

As for `COCc1ccc2oc(C3(C)CCN(c4c(C#N)c(=O)n(C)c5ccccc45)CC3)nc2c1` [Example 391, 4-{4-[5-(methoxymethyl)-1,3-benzoxazol-2-yl]-4-methylpiperidin-1-yl}-1-methyl-2-oxo-1,2-dihydroquinoline-3-carbonitrile], the IC50 is 8.3 nM.

For the compound `Cn1c(=O)c(C#N)c(N2CCC(c3ccc4c(c3)C3(CCC3)C(=O)N4)CC2)c2ccccc21` [Example 361, 1-methyl-2-oxo-4-[4-(2′-oxo-1′,2′-dihydrospiro[cyclobutane-1,3′-indol]-5′-yl)piperidin-1-yl]-1,2-dihydroquinoline-3-carbonitrile], the IC50 came out at 27 nM.

For `COc1ccc(C2CCN(c3c(C#N)c(=O)n(C)c4cc(C)ccc34)CC2)cc1` [Example 91, 4-[4-(4-methoxyphenyl)piperidin-1-yl]-1,7-dimethyl-2-oxo-1,2-dihydroquinoline-3-carbonitrile], the IC50 is 3.1 nM.

Take `COc1cccc(-c2csc(C3CCN(c4c(C#N)c(=O)n(C)c5ccccc45)CC3)n2)c1` [Example 372, 4-{4-[4-(3-methoxyphenyl)-1,3-thiazol-2-yl]piperidin-1-yl}-1-methyl-2-oxo-1,2-dihydroquinoline-3-carbonitrile]: the IC50 was determined as 14 nM.

On to `Cn1c(=O)c(C#N)c(N2CCC(c3ccc4c(c3)OC(C)(C)O4)CC2)c2ccccc21` [Example 360, 4-[4-(2,2-dimethyl-2H-1,3-benzodioxol-5-yl)piperidin-1-yl]-1-methyl-2-oxo-1,2-dihydroquinoline-3-carbonitrile], for which the IC50 was found to be 1.2 nM.

Consider `Cc1ccc2oc(C3(C)CCN(c4c(C#N)c(=O)n(C)c5ccc(C#N)cc45)CC3)nc2c1` [Example 207, 1-methyl-4-[4-methyl-4-(5-methyl-1,3-benzoxazol-2-yl)piperidin-1-yl]-2-oxo-1,2-dihydroquinoline-3,6-dicarbonitrile], for which the IC50 amounted to 2.7 nM.

As for `Cc1ccccc1-c1nnc(C2CCN(c3c(C(N)=O)c(=O)n(C)c4ccccc34)CC2)o1` [Example 461, 1-methyl-4-{4-[5-(2-methylphenyl)-1,3,4-oxadiazol-2-yl]piperidin-1-yl}-2-oxo-1,2-dihydroquinoline-3-carboxamide], the IC50 turned out to be 77 nM.

Turning to `Cn1c(=O)c(C(N)=O)c(N2CCC(c3nc4cc(OCC5CCCO5)ccc4o3)CC2)c2ccccc21` (centres unmarked) [Example 487, 1-methyl-2-oxo-4-(4-{5-[(oxolan-2-yl)methoxy]-1,3-benzoxazol-2-yl}piperidin-1-yl)-1,2-dihydroquinoline-3-carboxamide], the IC50 turned out to be 13 nM.

As to `Cn1c(=O)c(C#N)c(N2CCC(c3nc4cc(F)ccc4o3)CC2)c2ccccc21` [Example 6, 4-[4-(5-fluoro-1,3-benzoxazol-2-yl)piperidin-1-yl]-1-methyl-2-oxo-1,2-dihydroquinoline-3-carbonitrile], the IC50 was 4.3 nM.

Regarding `COc1ccc2c(c1)c(N1CCC(c3nc4ccc(C)cc4o3)CC1)c(C#N)c(=O)n2C` [Example 190, 6-methoxy-1-methyl-4-[4-(6-methyl-1,3-benzoxazol-2-yl)piperidin-1-yl]-2-oxo-1,2-dihydroquinoline-3-carbonitrile], the IC50 turned out to be 5.7 nM.

Consider `Cn1c(=O)c(C#N)c(N2CCC(c3nc4ccc(C5COC5)cc4o3)CC2)c2ccccc21` [Example 388, 1-methyl-4-{4-[6-(oxetan-3-yl)-1,3-benzoxazol-2-yl]piperidin-1-yl}-2-oxo-1,2-dihydroquinoline-3-carbonitrile], for which the IC50 came to 33 nM.

Consider `COCCNc1cc2c(cc1C)c(N1CCC(c3nc4cc(C)ccc4o3)CC1)c(C(N)=O)c(=O)n2C` [Example 552, 7-[(2-methoxyethyl)amino]-1,6-dimethyl-4-[4-(5-methyl-1,3-benzoxazol-2-yl)piperidin-1-yl]-2-oxo-1,2-dihydroquinoline-3-carboxamide], for which the IC50 stood at 1.6 nM.

For the compound `CC(C)Oc1ccc(C2CCN(c3c(C#N)c(=O)n(C)c4ccccc34)CC2)cc1` [Example 38, 1-methyl-2-oxo-4-(4-{4-[(propan-2-yl)oxy]phenyl}piperidin-1-yl)-1,2-dihydroquinoline-3-carbonitrile], the IC50 was determined as 1.5 nM.
